Marks after values point to notes of the source that are not given here.
Columns and labels:
[1] = test system: subcutaneous xenograft tumor of human glioblastoma LN-18; test: LN-18 subcutaneous xenograft, combined with radiotherapy; assay type: in vivo, NOG mice; conditions: day 17
Experimental: 9 Efficacy Test of the Compounds of the Present Disclosure Combined with Radiotherapy on Inhibiting the Growth of Subcutaneous Xenograft Tumor of Human Glioblastoma LN-18
9.1 Experimental Animals: NOG Mice, SPF, Female, 18 to 22 g.
LN-18 tumor cells, DMEM medium:fetal bovine serum=95%:5%, accompanied by adding 100 U/mL penicillin and 100 μg/mL streptomycin, 37° C., 5% CO2.
LN18 tumor cells resuspended in serum-free DMEM medium were inoculated subcutaneously in the right costal region of experimental animals at 1.5*10^7/0.15 mL, and the animals were grouped when the tumor grew to 100 to 150 mm^3. Radiotherapy was performed 1 h after administration of compounds.
Tumor volume: The tumor volume was measured twice a week with a vernier caliper, and the long diameter and short diameter of tumor were measured. The tumor volume was calculated as follows: tumor volume (TV)=0.5×long diameter×short diameter^2. Tumor growth inhibitory rate (TGI %) was calculated according to the tumor volume. TVXn represents the mean tumor volume on day n of the treatment group, TVX0 represents the mean tumor volume on day 0 of the treatment group, TVMn represents the mean tumor volume on day n of the control group, and TVM0 represents the mean tumor volume on day 0 of the control group.

ATM = ATM (Homo sapiens (Human), UniProt Q13315); test: Caliper mobility shift assay for ATM; assay type: biochemical; conditions: read-out: IC50 of inhibitory activity on ATM kinase
Chain of ATM (Q13315 whole entry): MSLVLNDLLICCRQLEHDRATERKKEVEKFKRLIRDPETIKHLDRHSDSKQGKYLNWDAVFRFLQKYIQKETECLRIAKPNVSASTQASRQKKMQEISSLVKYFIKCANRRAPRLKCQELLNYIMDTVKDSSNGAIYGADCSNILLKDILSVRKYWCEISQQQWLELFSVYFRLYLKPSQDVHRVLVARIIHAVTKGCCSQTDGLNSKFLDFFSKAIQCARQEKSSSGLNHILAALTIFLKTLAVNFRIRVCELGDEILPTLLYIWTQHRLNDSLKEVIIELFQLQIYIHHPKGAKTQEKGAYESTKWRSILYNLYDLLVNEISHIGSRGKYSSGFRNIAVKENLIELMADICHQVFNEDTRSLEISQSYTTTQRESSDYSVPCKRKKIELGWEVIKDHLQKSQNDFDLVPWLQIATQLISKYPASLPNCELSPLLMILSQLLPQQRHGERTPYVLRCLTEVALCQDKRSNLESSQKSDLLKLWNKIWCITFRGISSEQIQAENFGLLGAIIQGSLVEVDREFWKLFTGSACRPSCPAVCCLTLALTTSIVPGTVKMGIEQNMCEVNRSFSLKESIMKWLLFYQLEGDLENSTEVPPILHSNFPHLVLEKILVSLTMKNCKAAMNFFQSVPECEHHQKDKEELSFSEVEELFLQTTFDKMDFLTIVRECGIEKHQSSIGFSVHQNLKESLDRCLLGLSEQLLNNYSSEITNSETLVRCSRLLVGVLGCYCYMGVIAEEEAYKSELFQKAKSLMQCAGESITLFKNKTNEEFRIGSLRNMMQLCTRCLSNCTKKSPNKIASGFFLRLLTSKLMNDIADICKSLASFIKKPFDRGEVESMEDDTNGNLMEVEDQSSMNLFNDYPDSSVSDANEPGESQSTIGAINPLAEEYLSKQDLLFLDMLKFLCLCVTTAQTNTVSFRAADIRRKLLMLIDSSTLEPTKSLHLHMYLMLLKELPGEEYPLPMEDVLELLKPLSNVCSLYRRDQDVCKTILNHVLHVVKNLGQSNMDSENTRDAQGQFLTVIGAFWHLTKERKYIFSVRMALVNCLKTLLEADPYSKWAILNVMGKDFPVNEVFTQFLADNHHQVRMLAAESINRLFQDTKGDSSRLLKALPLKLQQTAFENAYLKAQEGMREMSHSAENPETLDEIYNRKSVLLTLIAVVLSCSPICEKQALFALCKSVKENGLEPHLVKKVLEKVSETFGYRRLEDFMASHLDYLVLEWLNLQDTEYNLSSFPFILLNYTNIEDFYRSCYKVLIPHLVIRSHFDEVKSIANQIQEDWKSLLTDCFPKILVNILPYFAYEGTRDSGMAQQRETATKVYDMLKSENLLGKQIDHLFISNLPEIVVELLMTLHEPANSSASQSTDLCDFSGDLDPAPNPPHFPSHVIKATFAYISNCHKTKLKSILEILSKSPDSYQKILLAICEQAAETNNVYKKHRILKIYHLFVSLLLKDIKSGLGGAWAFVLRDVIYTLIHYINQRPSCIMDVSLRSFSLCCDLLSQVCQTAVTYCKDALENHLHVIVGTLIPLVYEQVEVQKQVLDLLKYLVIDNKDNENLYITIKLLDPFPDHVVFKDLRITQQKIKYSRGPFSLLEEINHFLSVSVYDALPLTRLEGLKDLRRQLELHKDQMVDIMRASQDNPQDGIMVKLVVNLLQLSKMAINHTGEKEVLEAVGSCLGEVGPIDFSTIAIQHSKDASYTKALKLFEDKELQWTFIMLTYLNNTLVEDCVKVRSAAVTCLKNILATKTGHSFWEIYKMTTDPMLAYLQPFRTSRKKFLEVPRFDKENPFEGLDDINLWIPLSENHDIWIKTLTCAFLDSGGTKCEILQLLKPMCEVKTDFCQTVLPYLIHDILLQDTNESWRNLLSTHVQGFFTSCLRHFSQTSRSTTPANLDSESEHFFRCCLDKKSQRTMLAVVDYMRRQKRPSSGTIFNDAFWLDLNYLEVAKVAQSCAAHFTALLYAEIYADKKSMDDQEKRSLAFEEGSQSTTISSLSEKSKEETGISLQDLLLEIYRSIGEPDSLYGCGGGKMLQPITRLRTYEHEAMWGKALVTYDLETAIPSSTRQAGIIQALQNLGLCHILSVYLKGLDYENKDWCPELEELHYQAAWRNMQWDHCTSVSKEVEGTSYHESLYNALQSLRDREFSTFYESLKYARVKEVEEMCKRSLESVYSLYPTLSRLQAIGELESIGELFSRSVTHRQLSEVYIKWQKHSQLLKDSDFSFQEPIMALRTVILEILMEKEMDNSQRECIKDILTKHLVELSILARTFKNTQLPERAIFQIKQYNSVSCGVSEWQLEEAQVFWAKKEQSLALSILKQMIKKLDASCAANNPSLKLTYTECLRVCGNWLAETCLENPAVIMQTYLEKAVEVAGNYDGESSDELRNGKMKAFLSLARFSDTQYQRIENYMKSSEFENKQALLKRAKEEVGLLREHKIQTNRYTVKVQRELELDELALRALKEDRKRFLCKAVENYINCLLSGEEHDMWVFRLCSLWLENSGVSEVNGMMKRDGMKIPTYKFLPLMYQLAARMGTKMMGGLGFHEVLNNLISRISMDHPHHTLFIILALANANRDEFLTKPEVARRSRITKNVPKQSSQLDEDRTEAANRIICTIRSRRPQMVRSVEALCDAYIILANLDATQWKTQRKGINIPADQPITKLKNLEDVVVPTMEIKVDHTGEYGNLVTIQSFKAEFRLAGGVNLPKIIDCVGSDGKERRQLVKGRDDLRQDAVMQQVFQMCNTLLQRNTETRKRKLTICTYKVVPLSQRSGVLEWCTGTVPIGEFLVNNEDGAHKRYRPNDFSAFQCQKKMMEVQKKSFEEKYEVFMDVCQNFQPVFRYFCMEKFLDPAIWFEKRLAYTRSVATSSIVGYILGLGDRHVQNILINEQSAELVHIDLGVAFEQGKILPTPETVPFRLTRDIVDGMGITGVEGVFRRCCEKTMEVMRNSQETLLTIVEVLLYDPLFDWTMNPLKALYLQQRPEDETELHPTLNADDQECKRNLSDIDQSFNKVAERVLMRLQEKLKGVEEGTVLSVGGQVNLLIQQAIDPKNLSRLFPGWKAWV
Experimental: 1.2 Determination of the Inhibitory Activities of Compounds on ATM: Caliper Mobility Shift Assay for ATM
To a 96-well plate, 98 μL of DMSO and 2 μL of the 10 mM stock solution were added and mixed evenly so that the concentration of the solution was 200 μM.
Based on the inhibitory rates of the compound at different concentrations, IC50 was calculated according to the formula: Y=Bottom+(Top−Bottom)/(1+(IC50/X)^HillSlope).

[2] = test system: subcutaneous xenograft tumor of human non-small cell lung cancer cell line NCI-H441; test: NCI-H441 subcutaneous xenograft, combined with irinotecan liposome injection; assay type: in vivo, NU/NU mice
Experimental: 6 Efficacy Test of the Compounds of the Present Disclosure Combined with Irinotecan Liposome Injection on Inhibiting the Growth of Subcutaneous Xenograft Tumor of Human Non-Small Cell Lung Cancer Cell Line NCI-H441
6.1 Experimental Animals: NU/NU Mice, SPF, Female, 20 to 30 g.
Irinotecan liposome injection (HE072), 43 mg:10 mL, milky white liquid, batch No. B37191202, provided by Preparation Research Institute 2 from CSPC Zhongqi Pharmaceutical Technology (Shijiazhuang) Co., Ltd., diluted to an appropriate concentration with 5% glucose injection while testing.
NCI-H441 cells, provided by Nanjing Kebai Biotechnology Co., Ltd.; 1640 culture medium (gibco Company):fetal bovine serum (Lanzhou Bailing)=90%:10%, 37° C., 5% CO2.
NU/NU nude mice were subcutaneously inoculated with NCI-H441 human non-small cell lung cancer cells. When the mean tumor volume reached 170 to 172 mm^3 (15 days after inoculation), the animals were evenly divided into groups according to the tumor volume (d0), with 6 mice in each group. 2.5 mg/kg of HE072 was administered intraperitoneally once a week for 2 times. Vehicle control, 25 mg/kg of A-193, 25 mg/kg of A-182, and 25 mg/kg of AZD1390 were administered intragastrically once a day, from Monday to Thursday every week except Friday to Sunday, for 2 weeks (8 times). The tumor volume was measured twice a week, the body weight of mouse was weighed every day, and the data were recorded. The tumor volume (TV) was calculated according to the formula: TV=½×a×b2, wherein a and b represent the long and short diameters of tumor, respectively. Tumor growth inhibitory rate TGI (%)=[1−(Ti−T0)/(Vi−V0)]×100, wherein Ti represents the mean tumor volume of a given treatment group on a certain day; TO represents the mean tumor volume of this treatment group at the beginning of administration; Vi represents the mean tumor volume of the vehicle control group on a certain day (the same day as that in Ti); V0 represents the mean tumor volume of the vehicle control group at the beginning of administration. At the end of the test (d17), the animals were sacrificed, the tumors were stripped and weighed, and the tumor weight inhibitory rates were calculated.

[3] = test system: intracranial murine glioma GL-261-Luc; test: Intracranial murine glioma GL-261-Luc model, combined with radiotherapy; assay type: in vivo, C57BL/6 mice
Experimental: 8 Efficacy Test of the Compounds of the Present Disclosure Combined with Radiotherapy in the Intracranial Murine Glioma GL-261-Luc Model
8.1 Experimental Animals: C57BL/6 Mice, SPF, Female, 19 to 22 g.
GL-261-Luc tumor cells, DMEM medium:fetal bovine serum=90%:10%, accompanied by adding […] L-Glu, 37° C., 5% CO2.
Female C57BL/6 mice were anesthetized with Shutai 50 (60 mg/mL) and thiazine (1.5 mg/mL). Buprenorphine (0.1 mg/kg) was injected subcutaneously 30 min before operation and 6 h after operation to relieve pain. The operation area was disinfected with 70% ethanol solution. A sagittal incision was made on the parietal-occipital bone of anesthetized mice with a sterile scalpel, after cleaning the exposed skull surface with 3% hydrogen peroxide solution, tumor cells were injected. After injection, the skull was cleaned with 3% hydrogen peroxide solution, dried with a sterile dry cotton swab, and the incision was sutured. The state of mice was examined continuously to ensure that mice fully recovered from anesthesia.
The inoculated mice were weighed and intraperitoneally injected with […] (150 mg/kg). After 10 min injection, the animals were anesthetized with a mixture of oxygen and isoflurane. When the animal was completely anesthetized, it was moved into the imaging room for bioluminescence detection. The bioluminescence signal of the whole animal was measured and recorded for the image.
Bioluminescence detection was performed on the second day after operation, and the tumor-bearing mice were randomly divided into groups according to the intensity of bioluminescence. The specific groups were as follows. The administration route was intragastric administration and then JR 1 h after administration.
After grouping, bioluminescence detection was performed 1 to 2 times a week, according to the bioluminescence data, tumor growth inhibitory rate was calculated as follows: TGI (%)=[1−(Ti−T0)/(Vi−V0)]×100, wherein Ti represents the mean bioluminescence data of a given treatment group on a certain day; T0 represents the mean bioluminescence data of this treatment group at the beginning of administration; Vi represents the mean bioluminescence data of the vehicle control group on a certain day (the same day as that in Ti); V0 represents the mean bioluminescence data of the vehicle control group at the beginning of administration.

[4] = test system: Human glioblastoma cell line LN-18; test: LN18 cell proliferation combined with radiotherapy (CTG assay); assay type: cell-based; conditions: Homo sapiens, LN-18, light or radiation study; LN18 cells, 1 Gy irradiation 1 h after compound, 6 days, CTG;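 also: readout is CTG luminescence proliferation not KAP1 phosphorylation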
Experimental: 5 Test of the Inhibitory Activities of the Compounds of the Present Disclosure Combined with Radiotherapy on LN18 Cell Proliferation
• Cell: Human glioblastoma cell line LN-18
5.2 Experimental Procedures
• (1) Cell inoculation • 1) The cell culture fluid was preheated at 37° C. • 2) A complete culture medium of LN18 cells was prepared, at a ratio of DMEM medium:FBS=95:5 (V/V). • 3) Cells were digested with trypsin, collected to serve as a cell suspension, and counted, the cell suspension was then added into a 96-well plate at 1500 cells/well and 100 μL of cell fluid/well, and three parallel wells were set. • 4) After inoculated in the plate, the cells were cultured overnight under the condition of 37° C. and 5% CO2. • (2) Compound addition and incubation • 1) AZD1390 and tested compounds, respectively, were sequentially diluted 5 times with DMSO, starting from the concentration of 10 mM and yielding the concentrations of 10, 2, 0.4, 0.08, 0.016, 0.0032, 0.00064, 0.000128, and 0.0000256 mM in turn. The compound solutions at the above concentrations were diluted 5000 times with the complete culture medium. The final 2× concentrations were in order 2000, 400, 80, 16, 3.2, 0.64, 0.128, 0.0256, and 0.00512 nM. The vehicle control was 0.02% DMSO culture fluid. • 2) A complete culture medium containing 100 μL of the compound solution was added to each well, and the final concentrations of the compounds in the wells were in order 1000, 200, 40, 8, 1.6, 0.32, 0.064, 0.0128, and 0.00256 nM. The 0.01% DMSO culture fluid was contained in the vehicle control well. After incubated with compound for 1 h, the cells were irradiated at a dose of 1 Gy. • 3) After irradiation, the plate was put into an incubator and incubated under the condition of 37° C. and 5% CO2 for 6 days. Then detection was performed by adopting CTG assay (100 μL of liquid from each well was sucked out and discarded, and 50 μL of CTG reagent was added to each well, and incubated at room temperature for 30 min, and the luminescence intensity was detected). • (3) Data analysis • 1) The Luminescence signal (RLU) of each well was detected. • 2) Proliferation inhibitory activity was calculated according to the formula: % inhibitory activity=RLUtreatment/RLUAvg(Vehicle)*100. 5.3 the Inhibitory Activities of Compounds of the Present Disclosure Combined with Radiotherapy on LN18 Cell Proliferation

ATM-phosphorylated KAP1 = test: Intracellular ATM-phosphorylated KAP1 level, ICW assay in MCF7 cells; assay type: cell-based, Human; conditions: Homo sapiens, light or radiation study; MCF7 cells, 2 h compound, 10 Gy irradiation, further 1 h; read-out: pKAP1 IC50
Experimental: 4 Inhibition on Intracellular ATM-Phosphorylated KAP1 Level by the Compounds of the Present Disclosure: ICW Assay
• Cell: Human breast cancer cell line MCF7 • Materials and reagents:
4.2 Experimental Procedures
• (1) Cell inoculation • MCF7 cells were inoculated on a 384-well plate, 10000 cells/well (25 μL/well), and cultured overnight at 37° C. with 5% CO2. • (2) Activity detection • 1) The compound was formulated into a 100 mM solution with DMSO and then sequentially diluted with a gradient of 1:3 to yield a total of 10 concentration gradients, wherein the maximum concentration was 100 μM. • 2) 25 nL of each of the compound solutions with gradient concentrations prepared in step 1) was added to each well of the cell plate (Corning #356663) by using I-DOT One, resulting in a final concentration of 100 nM (maximum dose). • 3) The cell plate containing compound was incubated at 37° C. with 5% CO2 for 2 h. After 2 h, the cell plate was irradiated with a dose of 10 Gy, and then further incubated for 1 h. • 4) 25 μL of 8% paraformaldehyde was added to each well, followed by incubating at room temperature for 20 min. • 5) The 8% paraformaldehyde was discarded, followed by adding 0.1% TrintonX-100 and incubating at room temperature for 30 min. • 6) Odessey blocking buffer was added at 50 μL/well, followed by incubating at room temperature for 1.5 h. • 7) The Odessey blocking buffer was discarded, and then a primary antibody (Phospho-KAP1, 1:2000 dilution) was added, followed by incubating overnight at 4° C. • 8) The primary antibody was removed, followed by washing with PBS+0.1% Tween 20 for 5 times. • 9) DNA dye DRAQ5 coated with a second antibody (IRDye 800CW Goat anti-Rabbit, 1:4000 dilution) was added, followed by incubating at room temperature for 1 h. • 10) The second antibody was removed, followed by washing with PBS+0.1% Tween 20 for 5 times. • 11) PBS+0.1% Tween 20 was sucked off with Odyssey. • (3) Data analysis • 1) the relative ratio of Channel 800/Channel 700 for each well was detected. • 2) % of KAP1 phosphorylation was calculated according to the following formula:
% of KAP1 phosphorylation=[(Ratiocmpd−(Ratio)Positive)/((Ratio)Vehicle−(Ratio)Positive]*100 • (Ratio)Positive: the mean value of the test values of each positive control well in the test cell plate; • (Ratio)Vehicle: the mean value of the test values of each negative control well in the test cell plate. • 3) the IC50 of each compound was calculated and the dose-effect curve was plotted: % of KAP1 phosphorylation and log of compound's concentration were fit by using Graphpad 8.0 so as to calculate the IC50.
[formula] • X: log of compound's concentration • Y: % of KAP1 phosphorylation

[5] = compound 20 mg/kg intragastric qd × 5 + IR 1 Gy
[6] = compound 25 mg/kg intragastric + irinotecan liposome 2.5 mg/kg ip, day 17
[7] = compound 25 mg/kg intragastric + irinotecan liposome 2.5 mg/kg ip, end of test d17
[8] = compound 5 mg/kg intragastric qd × 5 + IR 1 Gy

Row | SMILES | D 17 TGI [1, 5] [%] | D 17 TV (MEAN ± SD) [1, 5] | IC50 (ATM) [nM] | inhibitory effect on tumor volume and tumor weight, in words ([2]; combined with irinotecan liposome injection, compared with AZD1390) | D 17 TGI [2, 6] [%] | D 17 TV (MEAN ± SD) [2, 6] | Tumor weight [2, 7] [g] | Tumor weight inhibitory rate [2, 7] [%] | anti-tumor activity, in words ([3]; combined with radiotherapy, compared with AZD1390) | D17 BLI ([3]; compound 10 mg/kg intragastric qd × 5 + IR 2 Gy, day 17) | D 17 TGI ([3]; compound 10 mg/kg intragastric qd × 5 + IR 2 Gy, day 17, from bioluminescence) [%] | D 17 TGI [1, 8] [%] | D 17 TV (MEAN ± SD) [1, 8] | IC50 [4] [nM] | IC50 (ATM-phosphorylated KAP1) [nM]
1 | C[C@@H]1COc2c(-c3ccc(OCCCN4CCCCC4)nc3)ccc3ncc4c(c23)n1c(=O)n4C [Example A-182, (R)-2,10-dimethyl-7-(6-(3-(piperidin-1-yl)propoxy)pyridin-3-yl)-9,10-dihydro-8-oxa-2,4,10a-triazanaphtho[2,1,8-cde]azulen-1(2H)-one] | 85.5 | 271 ± 107***^# mm^3 | 0.46 | higher than those of AZD1390 | 75.1 | 278.5 ± 94.1***^## mm^3 | 0.26 ± 0.07 | 56.1 | equivalent to that of AZD1390 | 5.24*** LOG10 | 110.08 | – | – | – | –
2 | C[C@H]1COc2c(-c3ccc(OCCCN4CCCCC4)nc3)ccc3ncc4c(c23)n1c(=O)n4C [Example A-177, (S)-2,10-dimethyl-7-(6-(3-(piperidin-1-yl)propoxy)pyridin-3-yl)-9,10-dihydro-8-oxa-2,4,10a-triazanaphtho[2,1,8-cde]azulen-1(2H)-one] | – | – | 0.25 | – | – | – | – | – | – | – | – | 77.9 | 338 ± 67***^ mm^3 | 5.22 | 0.61

From patent US20240294545A1 (CSPC Zhongqi Pharmaceutical Technology (Shijiazhuang) Co., …, priority 2020, published 2024)
